Measurements as given in patent US20120040939A1, “MEDICINAL USE OF 5-BENZYLAMINOSALICYLIC ACID DERIVATIVE OR ITS SALT” (priority 2009, published 2012).

How the values were obtained:
Format in all cases: in vivo
male C57BL/6 mice [1] = experiment: Stress-induced anxiety (restraint stress), elevated plus maze (EPM); details: EPM 5 minutes
Protocol: To evaluate the effect of compound 2 on stress-induced anxiety, we used a restraint stress animal model. Anxiety was evoked by exposing stress that a mice was restrained to be immovable in a narrow space, and whether the compound could show anxiolytic effect after administration the animals.
When experimental animals are exposed to stress, various physiological changes occur, which can be measured through several behavioral tests. In this study, anxiety of experimental animals was evaluated by an elevated plus maze (EPM). EPM apparatus consisted of two open arms, and two closed arms which are horizontally crossed. It is designed that the cross path is located 60 cm above the floor for the animals to feel anxiety. […]
At the day of experiment, animals exposed to restraint stress after animals were acclimatized to testing room over 60 minutes, and then were orally administered with the compound. One hour after administration the oral administration of compound 2 or lutrol, experimental animals were placed at the center of EPM and the animal behaviors were recorded during total 5 minutes using a camera mounted on the ceiling and a computer program (etho vision 3.0 (Noldus Information Technology)). The collected data were expressed as % time spent in open arms and the statistical analysis was done using one-way ANOVA followed by LSD (Least significant difference) post hoc comparisons.

male C57BL/6 mice [2] = experiment: Forced swimming test, antidepressant effect; details: final 4 min of 6-min session
Protocol: Forced swimming test is used to select compounds with therapeutic efficacy for depression. […] The immobility time is counted whenever the animal remained floating passively in the water without struggling except minimal movement to protrude its head above the water surface.
(§1) Nine-week-old male C57BL/6 mice weighing 20-23 g of body weight were used through this study. Experimental animals were kept in an animal breeding room with a 12 h dark/12 h light cycle and accommodated by 8 mice per cage supplied freely with water and feeding. The mice consisted of 8 animals per group were randomly allocated to the treatment groups.
(§2) Compound 2 was suspended in 10% lutrol solution and all the suspended solutions were administered orally to the mice twice daily at a volume of 5 ml/kg. The control group was treated only with 10% lutrol solution in the same manner. All the treatment of drugs or vehicle to the animals were given 1 hour before the test (n=8/group).
At the day of the experiment, the mice were acclimatized in the testing room over 60 minutes, orally given with the compound 2 or vehicle control, and received the forced swimming test. For the forced swimming test, a mouse was individually forced to swim inside an open glass cylindrical bath with height of 26 cm and diameter of 14 cm filled with water at 24±1° C. up to 16 cm high from the bottom so that the mouse tail could not reach the bottom. One hour after the mouse were orally given compound 2 and control vehicle, then the mice were exposed to forced swimming for 6 min in the water bath and their movement was recorded using a video camera system. The total duration of immobility was measured as a mean during the final 4 min of a 6-min test session and the data were statistically analyzed with one-way ANOVA followed by Tukey's HSD (Honestly Significant Difference) post hoc comparison.

Male ICR mice [3] = experiment: Tail suspension test (TST), antidepressant effect; details: twice daily, final 4 min of 6 min test, 1 h after treatment
Protocol: The effectiveness of the compound was evaluated using a tail-suspension test as in vivo method for depression. In this test immobility time of animals typically for 5-10 minutes is recorded using a manual or an automated device.
as §1, with “Male ICR” for “Nine-week-old male C57BL/6”, “28-30” for “20-23”, “throughout the” for “through this”
as §2, with “and the” for “and”, “all” for “all the”, “4” for “5”
This test was evaluated according to the method described in a previous publication [Psycopharmacology 85, 367-370, Steru et al. (1985)]. At the day of experiment, the mice were acclimatized in the testing room over 60 minutes and given with the compound, and then the test was conducted. After 1 h after drug treatment, the mice were taped with experimental adhesive tape, at approximately 1 cm from the tip of the tail. The mice were individually suspended on an experimental shelf about 58 cm above a table top by attaching the adhesive tape at the tip of the tail to the experimental shelf. And after that, total immobility time was measured for 6 min in the absence of noise. The total immobility time was measured during the final 4 min of a 6 min test session and the data were expressed as mean and analyzed by one-way ANOVA followed by Tukey's HSD (Honestly Significant Difference) post hoc comparison.

Male ICR mice [4] = experiment: Locomotor activity using open field test; details: 1.25-50 mg/kg oral, twice daily; 1 hour before the test
Protocol: The locomotor activity using open field test measured to know influence of drug treatment on activity in animals. Male ICR mice weighing 20-23 g of body weight were used throughout the study.
Experimental animals were kept in an animal breeding room with a […] cycle and accommodated by 8 mice per cage supplied freely with water and feeding. The mice consisted of 8 animals per group were randomly allocated to the treatment groups.
as §2
The open field was consisted of square arena (58 cm×58 cm) surrounded by a 30 cm height wall. […] At the start of each trial, a mouse was placed in a corner of the field and was allowed to freely move the arena and the moving trajectory for 5 min was measured. The behavior of animals was recorded and analyzed using a videotracking software (Etho Vision 3.0, Noldus Information Technology, Leesburg, Va.) attached to the ceiling above the middle of the arena.
The collected data were analyzed by one-way ANOVA followed by Tukey's HSD (Honestly Significant Difference) post hoc comparison.

Sprague-Dawley (SD) rats = experiment: Water immersion restraint stress (WIRS) gastric damage model; details: 30 mg/kg, given 1 hour before 10 hours WIRS
Protocol: The Sprague-Dawley (SD) rats weighing 200 g of body weight were deprived of food for over 24 hours and then were given with the experimental compound. After 1 hour, the rats were placed in a stress cage and immersed into water at 24° C. for 10 hours to induce WIRS
The SD rats weighing 200 g of body weight were deprived of food for 24 h and then were given with 30 mg/kg of compound 2. After 1 hour, the rats were placed in a stress cage and immersed into water for 10 hours. After WIRS for 10 hours, the rats were sacrificed under anesthesia with ether. Each stomach was isolated, soaked and fixed in 10 ml of 2% formalin solution for 10 minutes, and then opened along the greater curvature of the stomach. After spreading the stomach, stress-induced hemorrhagic lesions were examined macroscopically, and the results were shown in FIG. 2.

male C57BL/6 mice [5] = experiment: Repeated restraint stress test with forced swim test as index for depression; details: for decrease of immobility time compared with stressed control group (control 2): forced swim test; for decrease of immobility time compared with unstressed group (control 1): no stress, forced swimming test
Protocol: To test the efficacy of compounds on a stress-induced depression a restraint stress animal model was used. After evoking depression symptoms in a mouse corresponding to a human depression by exposing a stressed condition that it was placed in a narrow space to be unable to move, whether the compounds have any anti-depression effects were tested after treatment to this animal.
as §1, with “by 5-6” for “by 8”, “of 11” for “of 8”
as §2, with “(n=11/group).” for “(n=8/group).”
Animals were subjected to restraint-stress one hour after compound 2 or 10% lutrol was administered orally. Mice were exposed to restraint stress everyday 2 hr for 14 days and received a forced swim test such as <Example 4> as an index for depression.

[6] = 2.5 mg/kg oral BID + restraint stress 2 hr daily for 14 days
[7] = 5 mg/kg oral BID + restraint stress 2 hr daily for 14 days

- locomotor activity (open field, 5 min) (Male ICR mice [4]): not different among groups
SMILES: O=C(O)c1cc(NCCc2ccc(C(F)(F)F)cc2)ccc1O [compound 2, 2-hydroxy-5-[2-(4-trifluoromethyl-phenyl)-ethylamino]-benzoic acid]
- % time spent in open arm, increase compared with the stressed group (control 2) (male C57BL/6 mice [1]; [6]): 24%
- % time spent in open arm, increase compared with the stressed group (control 2) (male C57BL/6 mice [1]; [7]): 23%
- decrease of immobility time compared with the vehicle control group (male C57BL/6 mice [2]; 1.25 mg/kg oral BID): 31%
- decrease of immobility time compared with the vehicle control group (male C57BL/6 mice [2]; 2.5 mg/kg oral BID): 34%
- decrease of immobility time compared with the vehicle control group (male C57BL/6 mice [2]; 5 mg/kg oral BID): 30%
- decrease of immobility time compared with the vehicle control group (male C57BL/6 mice [2]; 12.5 mg/kg oral BID): 34%
- decrease of total immobility time compared with the control group (Male ICR mice [3]; 1.25 mg/kg oral): 46%
- decrease of total immobility time compared with the control group (Male ICR mice [3]; 2.5 mg/kg oral): 43%
- decrease of total immobility time compared with the control group (Male ICR mice [3]; 5 mg/kg oral): 42%
- decrease of total immobility time compared with the control group (Male ICR mice [3]; 12.5 mg/kg oral): 38%
- decrease of total immobility time compared with the control group (Male ICR mice [3]; 25 mg/kg oral): 54%
- decrease of total immobility time compared with the control group (Male ICR mice [3]; 50 mg/kg oral): 57%
- WIRS-induced gastric lesion index (Sprague-Dawley (SD) rats): definitely reduced
- decrease of immobility time compared with stressed control group (control 2) (male C57BL/6 mice [5]; [6]): 32%
- decrease of immobility time compared with unstressed group (control 1) (male C57BL/6 mice [5]; 2.5 mg/kg oral BID for 2 weeks): 21%
- decrease of immobility time compared with stressed control group (control 2) (male C57BL/6 mice [5]; [7]): 39%
- decrease of immobility time compared with unstressed group (control 1) (male C57BL/6 mice [5]; 5 mg/kg oral BID for 2 weeks): 26%
